Data as given in PubChem BioAssay AID2060605 (Molecular Pharmacology Branch, DTP, NCI, 2025).
Several values for one entry are separate records, joined by “and”; a condition that tells them apart may be missing. Equal values may be shown once. Activity calls are given as the source filed them. How the source made its calls: active means viability on the fitted dose curve at most 10% of control; inactive means the rest.

Tested on: 947758-054-R-J2-PDC spheroid growth, percent test/control
Test: Anticancer human tumor 947758-054-R-J2-PDC patient-derived colon adenocarcinoma cell line growth inhibition [CLK]
Conditions: spheroids with HUVEC and MSC; for viability, T/C: stronger effect = lower value; for IC50: curve of compound
Source text: A high-throughput screen of multi-cell type tumor spheroids was designed to identify active combinations of […] and targeted small molecules. Complex spheroids include a stromal component modeled by human endothelial cells (HUVEC) and fibroblasts modeled by human mesenchymal stem cells (MSCs). The concentration ranges selected for each drug and investigational agent were based upon clinically achievable concentrations if the clinical Cmax of the agent was known.
Compounds. The drugs and investigational agents: cirtuvivint (SM08502; NSC835563), CC-671 (NSC850746), vemurafenib (NSC761431), tapotoclax (NSC804041), sotorasib (NSC818433), adagrasib (NSC831453), MRTX-1133 (NSC836407), BAY2416964 (NSC825713), copanlisib (NSC816437), inavolisib (NSC800729), abemaciclib (NSC768073), osimertinib (NSC779217), entinostat (NSC756642), eltanexor (KPT-8602, NSC794443), venetoclax (NSC766270), ceralasertib (NSC777638), bortezomib (NSC756655), olaparib (NSC753686), talazoparib (NSC767125), alisertib (NSC759677), peposertib (NSC802822), gemcitabine (NSC613327), 5-fluorouracil (NSC19893), SN-38 (NSC673596), oxaliplatin (NSC266046), paclitaxel (NSC125973), and doxorubicin (NSC123127), were obtained from the National Cancer Institute (NCI) Developmental Therapeutics Program Chemical Repository. The FDA-approved anticancer drug set is available from the Developmental Therapeutics Program at https://dtp.cancer.gov/organization/dscb/obtaining/available plates.htm. […] The stock solutions were prepared in dimethyl sulfoxide (DMSO, Sigma-Aldrich, St. Louis, MO, cat. D2650), except for the platinum complexes which were prepared in saline (Quality Biological, Gaithersburg, MD, cat. 114-055-101), at 800-fold the tested concentration and stored at -70 degrees C prior to their use. All drugs and investigational agents were tested over a range starting from a high concentration at or near the clinical Cmax and decreasing in half-log increments. If the clinical Cmax for an agent had not been determined, the highest concentration tested was 10 microM.
Cell Culture. All cells were maintained in an incubator at 37 degrees C and 5% CO2 with 95% humidity. The PDC lines were cultured according to standard operating procedures established by the NCI PDMR. Briefly, all PDCs were thawed and cultured in Matrigel-coated flasks prepared with a working solution of 1X Ham's F-12 nutrient mix, without supplementation (Invitrogen, Waltham, MA, cat. 11765054), 100 U/mL penicillin-streptomycin (Invitrogen, cat. 15140122), and 2.5% Matrigel (Corning Inc., Corning, NY, cat. 354248) for the first three passages. The 947758-054-R-J2-PDC line was cultured in 6B/Colon 1A media, which includes advanced DMEM/F-12 (Thermo Fisher Scientific, cat. 12634028), 10 mM HEPES (Thermo Fisher Scientific, cat. 15630080), 1X GlutaMAX supplement (Thermo Fisher Scientific, cat. 35050061), 0.1 mg/mL primocin (InvivoGen, cat. ant-pm-2), 10% defined fetal bovine serum, heat inactivated (HyClone Laboratories Inc., cat. SH30070.03HI), 1.25 mM N-Acetyl-L-cysteine (Sigma-Aldrich, cat. A9165), 10 mM nicotinamide (Sigma-Aldrich, cat. N0636), 1X B-27 supplement (Thermo Fisher Scientific, cat. 17504044), 1X N-2 supplement (Thermo Fisher Scientific, cat. 17502048), and 10 microM Y-27632 dihydrochloride (Tocris Bioscience, cat. 1254). The 876862-298-R-J1-PDC was cultured in 6E media, which includes all 6B/Colon 1A media components plus 50% L-WRN conditioned media (ATCC, cat. CRL-3276), 50 ng/mL recombinant human EGF recombinant protein (hEGF; Thermo Fisher Scientific, cat. PHG0311), 10 ng/mL recombinant human fibroblast growth factor 10 (hGFG-10; PeproTech, cat. 100-26), 1 ng/mL recombinant human fibroblast growth factor 2 (hFGF-2; PeproTech, cat. 100-18B), and 1 µM prostaglandin E2 (PGE2; Tocris, cat. 2296). The 227483-062-R1-J1-PDC line was cultured in Panc media, containing all 6E components except hFGF-2, with the addition of 500 nM SB-431542 (Selleckchem, cat. S1067) and 10 nM gastrin (Tocris, cat. 3006). […]
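Further: spheroids exposed to compounds for one week before readout.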
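Wherever viability, T/C is given: 100% = DMSO vehicle control wells.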

Row | IC50 | SMILES | viability, T/C (compound 0.0316 µM) | viability, T/C (compound 0.1 µM) | viability, T/C (compound 0.316 µM) | viability, T/C (compound 1 µM) | viability, T/C (compound 3.16 µM) | viability, T/C (compound 10 µM) | other results
1 | > 10000 nM | C#Cc1c(F)ccc2cc(O)cc(-c3ncc4c(N5CC6CCC(C5)N6)nc(OCC56CCCN5CC(F)C6)nc4c3F)c12 (stereo not given) | 97% and 82.7% | 90.4% and 83.7% | 100% and 88% | 80% and 85.2% | 87.3% and 82.6% | 87.5% and 88% | –
2 | 6600 nM and 6470 nM | C=C(F)C(=O)N1CCN(c2nc(OCC3CCCN3C)nc3c2CCN(c2cccc4cccc(Cl)c24)C3)CC1CC#N (stereo not given) | 97% and 92.3% | 89.9% and 87.2% | 87% and 84% | 95.5% and 86.5% | 144% and 135% | 20% and 21.4% | –
3 | > 10000 nM | C=CC(=O)N1CCN(c2nc(=O)n(-c3c(C)ccnc3C(C)C)c3nc(-c4c(O)cccc4F)c(F)cc23)C(C)C1 (stereo not given) | 115% and 77.6% | 77.8% and 82.6% | 106% and 101% | 75.6% and 75% | 81.2% and 90.3% | 94.7% and 77.3% | –
4 | > 300 nM | C=CC(=O)Nc1cc(Nc2nccc(-c3cn(C)c4ccccc34)n2)c(OC)cc1N(C)CCN(C)C | – | – | – | – | – | – | viability, T/C (compound 0.000949 µM): 85.6% and 108%; viability, T/C (compound 0.003 µM): 62.3% and 94.7%; viability, T/C (compound 0.00949 µM): 90.8% and 103%; viability, T/C (compound 0.03 µM): 94.7% and 69.1%; viability, T/C (compound 0.0949 µM): 74.3% and 92.2%; viability, T/C (compound 0.3 µM): 87.2% and 78.5%
5 | 1.6 nM and 1.54 nM | CC(C)CC(NC(=O)C(Cc1ccccc1)NC(=O)c1cnccn1)B(O)O (stereo not given) | – | – | – | – | – | – | viability, T/C (compound 0.000949 µM): 89.3% and 86%; viability, T/C (compound 0.003 µM): 2.43% and 0.8%; viability, T/C (compound 0.00949 µM): 0.17% and 0.23%; viability, T/C (compound 0.03 µM): 0.24% and 0.3%; viability, T/C (compound 0.0949 µM): 0.19% and 0.27%; viability, T/C (compound 0.3 µM): 0.24% and 0.28%
6 | > 10000 nM | CC(CO)NC(=O)c1cc(-c2ccc(Cl)cc2)nn(-c2cnn(C)c2)c1=O (stereo not given) | 92.8% and 77.6% | 84.2% and 87.1% | 94.1% and 107% | 97.6% and 75.3% | 108% and 92.3% | 112% and 114% | –
7 | > 10000 nM | CC(Nc1ccc2c(c1)OCCn1cc(N3C(=O)OCC3C(F)F)nc1-2)C(N)=O (stereo not given) | 106% and 109% | 96.5% and 102% | 99.4% and 98.8% | 93% and 85.2% | 92.2% and 93.3% | 93.6% and 88.5% | –
8 | 5230 nM and 5170 nM | CC1(C)CCC(CN2CCN(c3ccc(C(=O)NS(=O)(=O)c4ccc(NCC5CCOCC5)c([N+](=O)[O-])c4)c(Oc4cnc5[nH]ccc5c4)c3)CC2)=C(c2ccc(Cl)cc2)C1 | 97.8% and 118% | 77.6% and 97.2% | 97.4% and 110% | 94.5% and 86.3% | 79.5% and 87.2% | 11.8% and 7.38% | –
9 | 7430 nM and 6370 nM | CC1COCCN1c1cc(C2(S(C)(=N)=O)CC2)nc(-c2ccnc3[nH]ccc23)n1 (stereo not given) | 110% and 128% | 92.4% and 100% | 79.1% and 102% | 111% and 108% | 202% | 26.1% and 28.4% | outcome (compound 3.16 µM): inactive
10 | > 10000 nM | CCCS(=O)(=O)Nc1ccc(F)c(C(=O)c2c[nH]c3ncc(-c4ccc(Cl)cc4)cc23)c1F | 81.8% and 79.5% | 79.8% and 65% | 79.4% and 71% | 77.4% and 68.7% | 83.3% and 76.3% | 80.2% and 70.7% | –
11 | 900 nM and > 1000 nM | CCN1CCN(Cc2ccc(Nc3ncc(F)c(-c4cc(F)c5nc(C)n(C(C)C)c5c4)n3)nc2)CC1 | 139% and 190% | 164% and 182% | 130% and 126% | 43% and 55.8% | – | – | viability, T/C (compound 0.00316 µM): 81.3% and 94.8%; viability, T/C (compound 0.01 µM): 81.6% and 106%
12 | 8.48 nM and 7.07 nM | CCc1c2c(nc3ccc(O)cc13)-c1cc3c(c(=O)n1C2)COC(=O)[C@]3(O)CC | 23.7% and 20.8% | 18.7% and 19% | 8.36% and 8.83% | 3.07% and 3.43% | – | – | viability, T/C (compound 0.00316 µM): 120% and 84.1%; viability, T/C (compound 0.01 µM): 34.2% and 32%
13 | – | CNC(=O)c1ccc(Nc2nc(OC3CCCC3)c3c(-c4ccc5nc(C)oc5c4)c[nH]c3n2)c(OC)c1 | 62.2% [middle of 12 runs] | – | – | 56.2% [middle of 12 runs] | 45.1% [middle of 12 runs] | 36.8% [middle of 12 runs] | –
14 | 8140 nM and 8090 nM | COC1C=CCC(C)C(C)S(=O)(=O)NC(=O)c2ccc3c(c2)N(CC2CCC21)CC1(CCCc2cc(Cl)ccc21)CO3 (stereo not given) | 99.1% and 84.9% | 77.1% and 86.7% | 101% and 100% | 75.3% and 81.2% | 94.4% and 83.8% | 41.3% and 42.6% | –
15 | 246 nM and 224 nM | COc1c(OCCCN2CCOCC2)ccc2c3n(c(=NC(=O)c4cnc(N)nc4)nc12)CCN3 | 111% and 105% | 90.1% and 72% | 38.9% and 41.3% | 23.1% and 22.7% | – | – | viability, T/C (compound 0.00316 µM): 107% and 111%; viability, T/C (compound 0.01 µM): 80.8% and 104%
16 | > 100 nM | Cn1ncnc1[C@H]1c2n[nH]c(=O)c3cc(F)cc(c23)N[C@@H]1c1ccc(F)cc1 | 117% and 87.6% | 130% and 119% | – | – | – | – | viability, T/C (compound 0.000316 µM): 90.1% and 87.9%; viability, T/C (compound 0.001 µM): 103% and 93.8%; viability, T/C (compound 0.00316 µM): 96.8% and 101%; viability, T/C (compound 0.01 µM): 96.7% and 94.4%
17 | 140 nM and 149 nM | NC(=O)C(=Cn1cnc(-c2cc(C(F)(F)F)cc(C(F)(F)F)c2)n1)c1cncnc1 | – | – | – | – | – | – | viability, T/C (compound 0.00949 µM): 101% and 94.5%; viability, T/C (compound 0.03 µM): 91% and 92.6%; viability, T/C (compound 0.0949 µM): 59.9% and 62.1%; viability, T/C (compound 0.3 µM): 28.5% and 28.9%; viability, T/C (compound 0.949 µM): 10.5% and 10%; viability, T/C (compound 3 µM): 2.27% and 3.82%
18 | 5180 nM and 3660 nM | Nc1ccccc1NC(=O)c1ccc(CNC(=O)OCc2cccnc2)cc1 | 102% and 80.7% | 105% and 97.2% | 115% and 90.4% | 96% and 121% | 77.7% and 55.5% | 13.9% and 11.4% | –
19 | < 31.6 nM | Nc1ccn(C2OC(CO)C(O)C2(F)F)c(=O)n1 (stereo not given) | 35.4% and 24.8% | 9.92% and 9.41% | 13.3% and 10.2% | 14.8% and 12.9% | 10.8% and 9.65% | 8.94% and 10.9% | –
20 | > 10000 nM | O=C(c1cc(Cc2n[nH]c(=O)c3ccccc23)ccc1F)N1CCN(C(=O)C2CC2)CC1 | 94.1% and 101% | 93.6% and 90% | 106% and 101% | 107% | 131% and 101% | 177% and 120% | –
21 | 1290 nM and 1430 nM | O=c1[nH]cc(F)c(=O)[nH]1 | 91.8% and 91.2% | 103% and 99% | 129% and 86.8% | 54.9% and 55.9% | 34.4% and 37.1% | 31.2% and 36.5% | –
